Results taken from ChEMBL document CHEMBL3639059, “Pyrazolothiazole compound” (2013).

Molecular target: T1, Corticotropin-releasing factor receptor 1 (Homo sapiens, UniProt P34998)
T1 sequence (P34998 whole entry): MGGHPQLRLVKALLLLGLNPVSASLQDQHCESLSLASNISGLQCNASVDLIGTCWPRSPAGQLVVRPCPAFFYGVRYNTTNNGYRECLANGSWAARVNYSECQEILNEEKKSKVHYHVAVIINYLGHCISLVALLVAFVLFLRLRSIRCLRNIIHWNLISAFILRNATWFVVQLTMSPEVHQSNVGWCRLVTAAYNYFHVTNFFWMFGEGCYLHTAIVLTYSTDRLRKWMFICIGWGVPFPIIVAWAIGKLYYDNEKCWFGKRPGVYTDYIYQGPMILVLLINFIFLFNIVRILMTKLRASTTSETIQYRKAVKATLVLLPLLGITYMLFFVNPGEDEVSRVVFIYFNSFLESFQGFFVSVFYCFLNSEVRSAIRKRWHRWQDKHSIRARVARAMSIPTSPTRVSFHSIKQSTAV
Experiment: Binding Assay: A binding competition experiment with CRF was conducted by the SPA (GE Healthcare) method using a 96-well plate.

With `CCCN(c1c(OC)nn2c(-c3c(OC)cc(Cl)cc3OC)csc12)C1CCOCC1` the IC50 was 74 nM.
